Measured values as given in patent US20150284362A1, “CARBAZOLE-CONTAINING AMIDES, CARBAMATES, AND UREAS AS CRYPTOCHROME MODULATORS” (ReSet Therapeutics, Inc., priority 2014, published 2015).

What was measured:
db/db mice = assay: 7 day dosing, glucose metabolism, insulin and compound levels in db/db mouse model of type II diabetes; type: in vivo; settings: 50 mg/kg PO QD 7 days
Description: Significance was accepted when p<0.05.

[1] = Pharmacokinetic analysis in SD rats (plasma); type: in vivo; settings: male, po, rat, 50 mg/kg P.O., Table 4, read-out: Total Plasma AUC, AUC (0-last)
Procedure: Male SD rats (weighing 250-300 g, Charles River Laboratories) were used for the experiment with n=4 rats for each experimental group. […] Blood was collected at the following time points after administration: 15, 30, 60, 90 minutes, 3, 6, 12 and 24 hours. A pre-dose sample was also collected. Animals were cannulated by technical staff at Charles River, prior to delivery at Reset. Whole blood (0.3 ml) was collected from a cannula in the right common jugular vein at each time-point. The whole blood was transferred to an EDTA tube, and then centrifuged at 5400 rpm for 5 minutes at 4° C. The resultant plasma was frozen using dry ice and then stored at −80° C. until ready for assay. 0.9% Sodium Chloride (0.3 ml) was administered for fluid replenishment after each blood draw. 0.1 ml of Sodium Heparin (500 IU/ml) was used as a lock solution after the 12 hr time-point. Samples were assayed as described above.

Dbp mRNA in whole blood = Dbp mRNA in whole blood of db/db mice after three daily doses; type: in vivo, mouse; settings: 100 mg/kg PO once daily for three days at ZT0, blood at ZT7.5
Procedure: For whole blood RNA studies, male db/db mice (9 weeks of age, The Jackson Laboratory, Bar Harbor, Me.) were used for the experiment with n=8 mice for each experimental group. […] On the final day at ZT7.5 (2:30 pm), animals were euthanized using CO2 asphyxiation, and the blood collected from the heart via cardiac puncture. The blood was placed in RNALater solution to 1.5 ml total volume. Total RNA was prepared using an Ambion Mouse RiboPure Blood RNA Isolation Kit AM1951 as follows. Samples were centrifuged for 3 minutes, discarding the supernatant. Two ml of lysis solution was added and vortexed, transferred to a 15 ml tube followed by the addition of microliters 3M Sodium Acetate. […]
RediPlate 96 RiboGreen RNA Quantification Kit (Invitrogen) RediPlate standard curve was prepared by transferring 20 μl reconstituted RNA standard to a RediPlate well reconstituted in 180 μl RediPlate TE buffer. […] After transferring 5 μl to RediPlate well reconstituted in 195 μl TE buffer and incubating 10 min. at RT, Fluorescence Intensity of wells with standards and samples were read in a Tecan M200 with Excitation set at 480 nm and Emission set at 520 nm with the gain set to ˜70%. […] A standard curve was generated in GraphPad Prism and sample readings (unknowns) are interpolated via linear regression analysis, and the RNA sample concentrations were calculated. […]

For O=C1NCCN1CC(O)Cn1c2ccc(F)cc2c2cc(F)ccc21 (stereo not drawn) [Compound 72, 1-(3-(3,6-difluoro-9H-carbazol-9-yl)-2-hydroxypropyl)imidazolidin-2-one], the “OGTT glucose vs vehicle control group” value (db/db mice) was “lower than the vehicle control group”, the AUC(0-t) [1] was 57900 ng·h/mL and the “Dbp gene expression in whole blood” value (Dbp mRNA in whole blood) was “statistically significant suppression”.
